Source: patent EP0503388A1, “Pregna-21-oic acid esters” (TEIKOKU SEIYAKU KABUSHIKI KAISHA, priority 1991, dated 1992)

Tested on: back of volunteers (10 healthy adult males)
Experiment: Vasoconstrictive activity: skin paleness after application of 0.1 % ointment in fin chamber
Format: in vivo
Details: for vasoconstrictive activity (skin paleness), overall result in words: 0.1 % by weight in white petrolatum base, compared with reference ointments of prednisolone and dexamethasone; for % of the number of subject which showed (+) Paleness was clearly observed / % of the number of subject which showed (±) Paleness was slightly obseved: 0.1 % by weight, about 20 mg of sample, 10 subjects
Protocol: The compounds of the present invention were tested for the vasoconstrictive activity in the following manner.
Each of the compounds (1) to (10) of the present invention was mixed in a white petrolatum base (white petrolatum : liquid paraffin = 9 : 1) at a concentration of 0.1 % by weight for use as a test sample. Commercially available steroidal medicaments (ointments of prednisolone and dexamethasone) were used at a concentration of 0.1 % by weight of the steroid as a reference sample. A commercially available ointment base was used as a control.
To one portion of the back of volunteers (10 healthy adult males) was applied each sample. About 20 mg of each sample was put in an aluminum part of fin chamber, which was applied. Two hours and four hours after the application, samples were simultanously removed. […] The result was evaluated based on the following criteria (-) Paleness was not observed. (±) Paleness was slightly obseved. (+) Paleness was clearly observed.

[1] = application time 2 hr, 2 hours after removal
[2] = application time 2 hr, 4 hours after removal
[3] = application time 4 hr, 2 hours after removal
[4] = application time 4 hr, 4 hours after removal

Row | SMILES | vasoconstrictive activity (skin paleness), overall result in words | % of the number of subject which showed (+) Paleness was clearly observed [1] [%] | % of the number of subject which showed (±) Paleness was slightly obseved [1] [%] | % of the number of subject which showed (+) Paleness was clearly observed [2] [%] | % of the number of subject which showed (±) Paleness was slightly obseved [2] [%] | % of the number of subject which showed (+) Paleness was clearly observed [3] [%] | % of the number of subject which showed (±) Paleness was slightly obseved [3] [%] | % of the number of subject which showed (+) Paleness was clearly observed [4] [%] | % of the number of subject which showed (±) Paleness was slightly obseved [4] [%]
1 | COC(=O)[C@@H](OC(C)=O)[C@@]1(O)[C@H](C)C[C@H]2[C@@H]3CCC4=CC(=O)C=C[C@]4(C)[C@@]3(F)[C@@H](O)C[C@@]21C [Compound (7), methyl (20S/R)-acetoxy-11β,17-dihydroxy-9α-fluoro-16α-methyl-3-oxo-1,4-pregnadien-21-oate] | excellent pharmacological activity | 0 | 10 | 0 | 50 | 30 | 70 | 50 | 80
2 | COC(=O)[C@@H](O)[C@@]1(O)[C@H](C)C[C@H]2[C@@H]3CCC4=CC(=O)C=C[C@]4(C)[C@@]3(F)[C@@H](O)C[C@@]21C [(5), methyl (20S)-9α-fluoro-16α-methyl-11β,17,20-trihydroxy-3-oxo-1,4-pregnadien-21-oate] | did not show significant difference from reference |  |  |  |  |  |  |  | 
3 | C[C@]12C=CC(=O)C=C1CC[C@@H]1[C@@H]2[C@@H](O)C[C@@]2(C)[C@H]1CC[C@]2(O)C(=O)CO [Prednisolone, prednisolone, reference compound] |  | 0 | 0 | 0 | 0 | 0 | 0 | 0 | 0
4 | COC(=O)[C@H](OC(C)=O)[C@@]1(O)[C@H](C)C[C@H]2[C@@H]3CCC4=CC(=O)C=C[C@]4(C)[C@@]3(F)[C@@H](O)C[C@@]21C [Compound (8), methyl (20S/R)-acetoxy-11β,17-dihydroxy-9α-fluoro-16α-methyl-3-oxo-1,4-pregnadien-21-oate] | did not show significant difference from reference |  |  |  |  |  |  |  | 
5 | C[C@@H]1C[C@H]2[C@@H]3CCC4=CC(=O)C=C[C@]4(C)[C@@]3(F)[C@@H](O)C[C@]2(C)[C@@]1(O)C(=O)CO [Dexamethasone, dexamethasone, reference compound] |  | 0 | 0 | 0 | 10 | 0 | 10 | 0 | 20
6 | COC(=O)[C@H](OC(=O)C(C)(C)C)[C@@]1(O)CC[C@H]2[C@@H]3CCC4=CC(=O)C=C[C@]4(C)[C@H]3[C@@H](O)C[C@@]21C [Compound (4)] |  | 0 | 10 | 0 | 70 | 20 | 70 | 40 | 100
7 | COC(=O)[C@@H](OC(=O)C(C)(C)C)[C@@]1(O)[C@H](C)C[C@H]2[C@@H]3CCC4=CC(=O)C=C[C@]4(C)[C@@]3(F)[C@@H](O)C[C@@]21C [Compound (9), methyl (20S)-11β,17-dihydroxy-9α-fluoro-16α-methyl-3-oxo-20-pivaloyloxy-1,4-pregnadien-21-oate] | excellent pharmacological activity | 0 | 0 | 0 | 0 | 0 | 50 | 10 | 90
8 | COC(=O)[C@H](OC(=O)C(C)(C)C)[C@@]1(O)[C@H](C)C[C@H]2[C@@H]3CCC4=CC(=O)C=C[C@]4(C)[C@@]3(F)[C@@H](O)C[C@@]21C [Compound (10), methyl (20R)-11β,17-dihydroxy-9α-fluoro-16α-methyl-3-oxo-20-pivaloyloxy-1,4-pregnadien-21-oate] |  | 0 | 0 | 0 | 10 | 0 | 0 | 0 | 10
9 | COC(=O)[C@H](O)[C@@]1(O)[C@H](C)C[C@H]2[C@@H]3CCC4=CC(=O)C=C[C@]4(C)[C@@]3(F)[C@@H](O)C[C@@]21C [(6), methyl (20R)-9α-fluoro-16α-methyl-11β,17,20-trihydroxy-3-oxo-1,4-pregnadien-21-oate] | did not show significant difference from reference |  |  |  |  |  |  |  | 
